According to article PMC10002375, “Synthesis of 3-(2-Alkylthio-4-chloro-5-methylbenzenesulfonyl)-2-(1-phenyl-3-arylprop-2-enylideneamino)guanidine Derivatives with Pro-Apoptotic Activity against Cancer Cells” (International Journal of Molecular Sciences, 2023):

Tests used:
[1] = system: MCF-7 (breast cancer); assay: MTT cell viability assay, MCF-7; format: cell-based, human; conditions: for IC50: MTT, 72 h; for Selectivity Index MCF-7/HaCaT: MCF-7 versus HaCaT, from IC50 values
Text: (§1) The cytotoxic activity of the compounds 8–33 has been evaluated in MTT assays against three human cancer cell lines MCF-7 (breast cancer), HeLa (cervical cancer), and HCT-116 (colon cancer) and it was expressed as IC50 values in μM (Table 1).
(§2) All chemicals, if not stated otherwise, were obtained from Sigma-Aldrich (St. Louis, MO, USA). The MCF-7 cell line was purchased from Cell Lines Services (Eppelheim, Germany), the HeLa and HCT-116 cell lines were obtained from the Department of Microbiology, Tumor and Cell Biology, Karolinska Institute (Stockholm, Sweden). Cells were cultured in Dulbecco’s modified Eagle’s medium (DMEM) supplemented with 10% fetal bovine serum, 2 mM glutamine, 100 units/mL penicillin, and 100 μg/mL streptomycin. Cultures were maintained in a humidified atmosphere with 5% CO2 at 37 °C in an incubator (HeraCell, Heraeus, Langenselbold, Germany).
(§3) Cell viability was determined using the MTT (3-(4,5-dimethylthiazol-2-yl)-2,5-diphenyl-tetrazoliumbromide) assay. Stock solutions of the studied compounds were prepared in 100% DMSO. […] Cells were seeded in 96-well plates at a density of 5 × 10^3 cells/well and treated for 72 h with the examined compounds in the concentration range 1–100 μM (1, 10, 25, 50, and 100 μM). Following treatment, MTT (0.5 mg/mL) was added to the medium and cells were further incubated for 2 h at 37 °C. Cells were lysed with DMSO and the absorbance of the formazan solution was measured at 550 nm with a plate reader (1420 multilabel counter, Victor, Jügesheim, Germany). […] The experiment was performed in triplicate. Values are expressed as the mean ± SD of at least three independent experiments.

[2] = system: HaCaT cells; assay: MTT assay with non-cancerous HaCaT cell line; format: cell-based; conditions: 72 h
Description: The important feature of new cytotoxic agents is their selective activity against cancer cells with a weak impact on the physiology of healthy cells. Determination of the selectivity of compounds 14–19 and 24–29 was done by MTT assay with the non-cancerous HaCaT cell line (Table 2). […] A similar effect was observed also for compound 26. […] Due to the excellent selectivity of compound 30 towards HCT-116 cells and at the same time high cytotoxicity towards this cell line (IC50 = 8 μM); derivative 30 may be a good hit compound for the search for chemotherapeutic agents for the treatment of colon cancer.
as §3

[3] = system: HCT-116 (colon cancer); assay: MTT cell viability assay, HCT-116; format: cell-based, human; conditions: for IC50: Homo sapiens, HCT-116, MTT, 72 h; for Selectivity Index HCT-116/HaCaT: HCT-116 versus HaCaT, from IC50 values
Description: as §2, §3

[4] = system: HeLa (cervical cancer); assay: MTT cell viability assay, HeLa; format: cell-based, human; conditions: for IC50: Homo sapiens, HeLa, MTT, 72 h; for Selectivity Index HeLa/HaCaT: HeLa versus HaCaT, from IC50 values
Description: as §2, §3

[5] = system: MCF-7, HeLa and HCT-116 cells; assay: MTT assay, mean over three tested cancer cell lines; format: cell-based, human
Description: as §1
Although the highest activity of the compounds with hydroxyl groups as the R^2 residue was against colon cancer cells, the inhibition of the growth of breast cancer cells was also remarkable.
as §3

Compound	IC50 [1]	IC50 [2]	IC50 [3]	IC50 ([1]; Homo sapiens, MCF7)	IC50 [4]	Selectivity Index HCT-116/HaCaT [3]	Selectivity Index MCF-7/HaCaT [1]	Selectivity Index HeLa/HaCaT [4]	IC50 ([2]; Homo sapiens, HaCaT)	melting point	selectivity ratio, mean IC50 against cancer cells versus IC50 for HaCaT ([5]; HaCaT versus mean of three cancer cell lines)	IC50 ([5]; Homo sapiens, mean of MCF-7, HeLa, HCT-116, MTT, 72 h, read-out: mean IC50 against three tested cell lines)
N.N.[Cl][Pt][Cl] [Cisplatin, reference compound]	3 ± 0.1 µM	7.7 ± 0.2 µM	–	–	–	–	–	–	–	–	–	–
Cc1cc(S(=O)(=O)NC(N)=NN=C(C=Cc2ccccc2)c2ccccc2)c(SCc2ccccc2)cc1Cl [Compound 8]	–	–	167 ± 7 µM	130 ± 8 µM	120 ± 8 µM	–	–	–	–	–	–	–
Cc1cc(S(=O)(=O)NC(N)=NN=C(C=Cc2ccccc2O)c2ccccc2)c(SCc2ccccc2)cc1Cl [Compound 9]	–	–	11 ± 0.5 µM	18 ± 1 µM	17 ± 1 µM	3.2	1.9	2.1	35 ± 1 µM	–	–	–
Cc1cc(S(=O)(=O)NC(N)=NN=C(C=Cc2ccc(O)cc2)c2ccccc2)c(SCc2ccccc2)cc1Cl [Compound 10]	–	–	9 ± 0.1 µM	15 ± 1 µM	15 ± 1 µM	3.4	2.1	2.1	31 ± 1 µM	–	–	–
COc1ccc(C=CC(=NN=C(N)NS(=O)(=O)c2cc(C)c(Cl)cc2SCc2ccccc2)c2ccccc2)cc1 [Compound 11]	–	–	300 ± 21 µM	330 ± 17 µM	–	–	–	–	–	–	–	–
Cc1cc(S(=O)(=O)NC(N)=NN=C(C=Cc2ccc(Cl)cc2)c2ccccc2)c(SCc2ccccc2)cc1Cl [Compound 12]	–	–	113 ± 6 µM	210 ± 13 µM	190 ± 10 µM	–	–	–	–	–	–	–
Cc1cc(S(=O)(=O)NC(N)=NN=C(C=Cc2ccc([N+](=O)[O-])cc2)c2ccccc2)c(SCc2ccccc2)cc1Cl [Compound 13]	–	–	320 ± 10 µM	370 ± 20 µM	340 ± 31 µM	–	–	–	–	–	–	–
Cc1cc(S(=O)(=O)NC(N)=NN=C(C=Cc2ccccc2O)c2ccccc2)c(SCc2ccccc2C)cc1Cl [Compound 14]	–	–	9 ± 0.1 µM	13 ± 0.6 µM	18 ± 1 µM	3.4	2.4	1.7	31 ± 2 µM	–	–	–
Cc1cc(S(=O)(=O)NC(N)=NN=C(C=Cc2ccc(O)cc2)c2ccccc2)c(SCc2ccccc2C)cc1Cl [Compound 15]	–	–	10 ± 0.6 µM	13 ± 0.4 µM	18 ± 0.5 µM	3.3	2.5	1.8	33 ± 2 µM	220 to 225 °C	–	–
Cc1cccc(CSc2cc(Cl)c(C)cc2S(=O)(=O)NC(N)=NN=C(C=Cc2ccccc2O)c2ccccc2)c1 [Compound 16]	–	–	17 ± 0.1 µM	20 ± 0.5 µM	36 ± 2 µM	2.4	2.0	ns	41 ± 2 µM	–	–	–
Cc1cccc(CSc2cc(Cl)c(C)cc2S(=O)(=O)NC(N)=NN=C(C=Cc2ccc(O)cc2)c2ccccc2)c1 [Compound 17]	–	–	12 ± 0.6 µM	17 ± 1 µM	21 ± 1 µM	2.9	2.1	1.7	35 ± 2 µM	–	–	–
Cc1ccc(CSc2cc(Cl)c(C)cc2S(=O)(=O)NC(=N)N/N=C(/C=C/c2ccccc2)c2ccccc2)cc1 [Compound 18]	–	–	160 ± 5 µM	260 ± 15 µM	200 ± 10 µM	–	–	–	–	–	–	–
Cc1ccc(CSc2cc(Cl)c(C)cc2S(=O)(=O)NC(N)=NN=C(C=Cc2ccccc2O)c2ccccc2)cc1 [Compound 19]	–	–	11 ± 0.2 µM	14 ± 1 µM	23 ± 1 µM	3.3	1.9	1.6	36 ± 2 µM	120 to 125 °C	–	–
Cc1ccc(CSc2cc(Cl)c(C)cc2S(=O)(=O)NC(N)=NN=C(C=Cc2ccc(O)cc2)c2ccccc2)cc1 [Compound 20, 3-{4-Chloro-2-[(4-methylphenyl)methylthio]-5-methylbenzenesulfonyl}-2-[3-(4-hydroxyphenyl)-1-phenylprop-2-enylideneamino]guanidine]	–	–	8.5 ± 0.2 µM	15 ± 1 µM	15 ± 1 µM	3.6	2.1	2.1	31 ± 1 µM	–	2.42	12.8 µM
COc1ccc(C=CC(=NN=C(N)NS(=O)(=O)c2cc(C)c(Cl)cc2SCc2ccc(C)cc2)c2ccccc2)cc1 [Compound 21]	–	–	235 ± 5 µM	150 ± 10 µM	250 ± 12 µM	–	–	–	–	–	–	–
Cc1ccc(CSc2cc(Cl)c(C)cc2S(=O)(=O)NC(N)=NN=C(C=Cc2ccc(Cl)cc2)c2ccccc2)cc1 [Compound 22]	–	–	183 ± 13 µM	193 ± 10 µM	705 ± 35 µM	–	–	–	–	172 to 177 °C	–	–
Cc1ccc(CSc2cc(Cl)c(C)cc2S(=O)(=O)NC(N)=NN=C(C=Cc2ccc([N+](=O)[O-])cc2)c2ccccc2)cc1 [Compound 23]	–	–	–	280 ± 17 µM	170 ± 10 µM	–	–	–	–	–	–	–
Cc1cc(S(=O)(=O)NC(N)=NN=C(C=Cc2ccc(O)cc2)c2ccccc2)c(SCc2ccccc2Cl)cc1Cl [Compound 25]	–	–	15 ± 0.6 µM	19 ± 1 µM	18 ± 0.5 µM	2.7	2.2	2.3	41 ± 2 µM	–	–	–
Cc1cc(S(=O)(=O)NC(N)=NN=C(C=Cc2ccccc2O)c2ccccc2)c(SCc2cccc(Cl)c2)cc1Cl [Compound 26]	–	–	10 ± 0.4 µM	13 ± 0.6 µM	19 ± 0.5 µM	3.8	2.9	2.0	38 ± 2 µM	–	–	–
Cc1cc(S(=O)(=O)NC(N)=NN=C(C=Cc2ccc(O)cc2)c2ccccc2)c(SCc2cccc(Cl)c2)cc1Cl [Compound 27]	–	–	12 ± 0.1 µM	16 ± 1 µM	20 ± 0.5 µM	3.1	2.3	1.8	37 ± 2 µM	–	–	–
Cc1cc(S(=O)(=O)NC(N)=NN=C(C=Cc2ccccc2)c2ccccc2)c(SCc2ccc(Cl)cc2)cc1Cl [Compound 28]	–	–	220 ± 11 µM	230 ± 12 µM	20 ± 1 µM	–	–	–	99 ± 3 µM	–	–	–
Cc1cc(S(=O)(=O)NC(N)=NN=C(C=Cc2ccccc2O)c2ccccc2)c(SCc2ccc(Cl)cc2)cc1Cl [Compound 29]	–	–	18 ± 0.4 µM	19 ± 1 µM	41 ± 2 µM	2.5	2.4	ns	45 ± 3 µM	–	–	–
Cc1cc(S(=O)(=O)NC(N)=NN=C(C=Cc2ccc(O)cc2)c2ccccc2)c(SCc2ccc(Cl)cc2)cc1Cl [Compound 30, 3-{4-chloro-2-[(4-chlorophenyl)methylthio]-5-methylbenzenesulfonyl}-2-[3-(4-hydroxyphenyl)-1-phenylprop-2-enylideneamino]guanidine]	–	–	8 ± 0.2 µM	18 ± 1 µM	37 ± 1 µM	10.6	4.7	2.3	85 ± 2 µM	–	–	–
Cc1cc(S(=O)(=O)NC(N)=NN=C(C=Cc2ccc([N+](=O)[O-])cc2)c2ccccc2)c(SCc2ccc(Cl)cc2)cc1Cl [Compound 33]	–	–	450 ± 27 µM	220 ± 12 µM	110 ± 3 µM	–	–	–	–	–	–	–
